Test [1] concerns the target T1, human recombinant Cdk5/p35 heterodimer (Homo sapiens, UniProt Q00535).
T1 construct: purchased Invitrogen (Life Technologies)
Kind of test: Cdk5 assay (Z'-LYTE FRET enzymatic activity). It counts as biochemical. As to conditions: 10 nM enzyme, 12.5 µM ATP, 2 µM Ser/Thr 12 peptide, 60 min at room temperature; concentration in M units; read-out: Cdk5 inhibition pEC50 average (converted). As to the method:
The enzymatic activity of Cdk5 was determined with a commercial system based on the Z'-LYTE® technology, available from Life Technologies (Carlsbad, CA, USA), using human recombinant Cdk5/p35 heterodimer, also available from Invitrogen as the enzyme source. This technology utilizes the fluorescence resonance energy transfer ("FRET") process between fluorescein and coumarin. The assay principle is based on the differential sensitivity of phosphorylated and non-phosphorylated peptide to proteolytic cleavage, which precludes the energy transfer process between the two fluorophores attached to both sides of the cleavage site. […] The assay is performed in 384-well black plates, in a final volume of 10 µl, with 10 nM enzyme concentration, in 50 mM Hepes pH 7.5, 50 mM MgCl2, 5 mM EGTA and 0.05% Brij-35, using 12.5 µM ATP and 2 µM substrate peptide. The latter is a synthetic peptide provided by Invitrogen, under the commercial name "Ser/Thr 12 peptide", and it is based upon the sequence of Cdk7, containing Ser-164 and a (Ser/Thr)-Pro-X-(Lys/Arg) consensus sequence, wherein X is any residue. The peptide is labeled at both ends with fluorescein and coumarin. The assay is carried out in the presence of different concentrations of the tested compound, at a final 1% (v/v) DMSO concentration. After a 60 min incubation, at room temperature, 5 µl of a commercial protease solution (sold by the same vendor in the assay kit) is added and a subsequent 1h incubation at room temperature is performed, before adding 5 µl of a suitable "stop solution", also provided by the vendor in the kit. After that, fluorescence intensity is recorded, monitoring emission at both 445 and 520 nm, upon excitation at 400 nm. An emission ratio is finally calculated, using the quotient among the emission at 445 nm divided by that at 520 nm.
The emission ratio of each tested sample is normalized to that of the control wells, so that for every compound concentration the percentage of inhibition is calculated by using the following equation: % Inhibition = 100⋅(E-S)/(E-B) [formula] where "S" is the emission from the wells with the tested sample, "E" is the average emission from control wells with full enzyme activity and "B" is the average emission from wells with full enzyme inhibition. Inhibition values obtained for every compound concentration are finally used to calculate the pEC50 of the tested compound, this parameter being the negative value of the logarithm of the compound concentration, in M units, causing 50% of its maximum effect (i.e., the higher the pEC50 value the higher the potency of the compound). For that purpose the data were fitted to the following equation using the nonlinear regression function of GraphPad™ Prism 5.0 (GraphPad Software Inc.): % Inhibition = L + (H-L)/(1 + 10^(((logC+pEC50))^N)) [formula] where "L" is the lower asymptote of the theoretical sigmoidal curve, "H" is the higher asymptote, "C" is the concentration of compound in M units and "N" is the Hill coefficient.

Test [2] has as its target T2, human recombinant GSK3β (N-terminal 6His-tagged recombinant enzyme with an H350L mutation) (Homo sapiens, UniProt P49841).
T2 construct: 6His (N); purchased Millipore (Billerica, MA, USA)
The test can be described thus: GSK-3 assay (Z'-LYTE FRET enzymatic activity). The class given is biochemical. As to conditions: 2 nM enzyme, 12.5 µM ATP, 2 µM Ser/Thr 9 peptide, 60 min at room temperature; concentration in M units; read-out: GSK-3 inhibition pEC50 average (converted). As to the method: The enzymatic activity of GSK3β was determined with a commercial system based on the Z'-LYTE® technology, available from Life Technologies (Carlsbad, CA, USA), using human recombinant GSK3β (N-terminal 6His-tagged recombinant enzyme with an H350L mutation) from Millipore (Billerica, MA, USA) as the enzyme source. This technology utilizes the fluorescence resonance energy transfer ("FRET") process between fluorescein and coumarin. The assay principle is based on the differential sensitivity of phosphorylated and non-phosphorylated peptide to proteolytic cleavage, which precludes the energy transfer process between the two fluorophores attached to both sides of the cleavage site. […] The assay is performed in 384-well black plates, in a final volume of 10 µl, with 2 nM enzyme concentration in 50 mM Hepes pH 7.5, 50 mM MgCl2, 5 mM EGTA and 0.05% Brij-35, using 12.5 µM ATP and 2 µM substrate peptide. The latter is a synthetic peptide, provided by Invitrogen under the commercial name "Ser/Thr 9 peptide", and it is based upon the sequence of a GSK3β substrate protein (glycogen synthase I) containing Ser-641. The peptide is labeled at both ends with fluorescein and coumarin. The assay is carried out in the presence of different concentrations of the tested compound, at a final 1 % (v/v) DMSO concentration. After a 60 min incubation at room temperature, 5 µl of a commercial protease solution (sold by the same vendor in the assay kit) is added and a subsequent 1h incubation at room temperature is performed, before adding 5 µl of a suitable "stop solution", also provided by the vendor in the kit. After that, fluorescence intensity is recorded, monitoring emission at both 445 and 520 nm, upon excitation at 400 nm. An emission ratio is finally calculated, using the quotient among the emission at 445 nm divided by that at 520 nm.
The emission ratios for each concentration of compound are finally used to calculate the pEC50 value, according to the procedure described above for Cdk5.

T2 sequence (P49841 whole entry, stated change not applied): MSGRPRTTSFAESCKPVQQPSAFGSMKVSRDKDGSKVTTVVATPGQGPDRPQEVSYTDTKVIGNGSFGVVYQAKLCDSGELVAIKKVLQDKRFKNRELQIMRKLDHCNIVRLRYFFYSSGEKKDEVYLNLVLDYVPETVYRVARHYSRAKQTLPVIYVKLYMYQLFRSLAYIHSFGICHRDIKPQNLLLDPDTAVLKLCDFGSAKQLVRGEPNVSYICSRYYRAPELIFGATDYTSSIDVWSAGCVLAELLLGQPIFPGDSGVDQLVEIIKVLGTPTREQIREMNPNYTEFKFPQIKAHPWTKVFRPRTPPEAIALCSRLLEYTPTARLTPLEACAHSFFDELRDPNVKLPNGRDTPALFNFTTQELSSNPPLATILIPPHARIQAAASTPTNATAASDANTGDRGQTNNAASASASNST
T1 sequence (Q00535 whole entry): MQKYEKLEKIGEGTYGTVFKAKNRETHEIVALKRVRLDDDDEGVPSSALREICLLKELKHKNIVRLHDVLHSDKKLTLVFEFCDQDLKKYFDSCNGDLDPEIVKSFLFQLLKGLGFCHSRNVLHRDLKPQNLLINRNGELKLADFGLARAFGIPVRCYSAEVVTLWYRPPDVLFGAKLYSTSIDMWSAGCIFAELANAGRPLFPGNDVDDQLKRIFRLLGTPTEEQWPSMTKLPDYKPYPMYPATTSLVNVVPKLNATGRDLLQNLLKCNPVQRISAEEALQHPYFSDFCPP
T1 sequence (Q15078 whole entry partner): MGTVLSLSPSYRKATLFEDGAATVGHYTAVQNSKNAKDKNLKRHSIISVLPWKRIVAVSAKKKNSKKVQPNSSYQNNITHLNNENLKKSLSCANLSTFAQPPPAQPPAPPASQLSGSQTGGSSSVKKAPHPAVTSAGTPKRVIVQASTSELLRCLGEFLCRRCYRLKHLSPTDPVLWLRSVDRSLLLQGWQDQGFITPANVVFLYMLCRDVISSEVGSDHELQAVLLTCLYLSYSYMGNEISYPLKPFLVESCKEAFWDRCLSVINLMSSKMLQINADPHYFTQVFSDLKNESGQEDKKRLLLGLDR

For `CN1C(=N)NCC1c1c(C(=O)O)[nH]c2ccc(Br)cc12` (centres unmarked) [Compound 1], the results for the EC50 in test [1] and in test [2] were 1.1 µM and 35.5 µM, respectively.
`CN1CC(c2c(C(=O)O)[nH]c3ccc(Br)cc23)N(C)C1=N` (centres unmarked) [Compound 2]: the figures for the EC50 in test [1] and in test [2] were 2.82 µM and 74.1 µM, respectively.
In the same order, the values of `CN1C(=N)NCC1c1c(C(=O)O)[nH]c2cc(O)c(Br)cc12` (centres unmarked) [Compound 3] are 0.0955 µM and 11.2 µM.
The matching figures for `CN1CC(c2c(C(=O)O)[nH]c3cc(O)c(Br)cc23)N(C)C1=N` (centres unmarked) [Compound 4]: 0.0741 µM and 15.5 µM.
In the same order, the values of `CN1C(=N)N(C)C(c2c(C(=O)O)[nH]c3ccc(Br)cc23)C1O` (centres unmarked) [Compound 5] are 3.09 µM and 97.7 µM.
On to `CN1C(=N)N(C)C(c2c(C(=O)O)[nH]c3cc(O)c(Br)cc23)C1O` (centres unmarked) [Compound 6], for which the EC50 in test [1] was 0.049 µM; in test [2] it was 8.32 µM.
The matching figures for `CN1C(N)=NCC1c1c(C(=O)O)[nH]c2ccccc12` (centres unmarked) [Compound 7]: 0.933 µM and 42.7 µM.

The record behind these values is patent publication EP2662081A1, “Therapeutic use of indole-dihydro-imidazole derivatives” (NOSCIRA, S.A., priority 2012, dated 2013).
